Measurements taken from US12252524B2, “GIP/GLP1 co-agonist compounds” (Eli Lilly and Company, priority 2018, dated 2025).
Read-outs that look alike come from different tables or passages of the source. Numbered stars: 1 amine (or outer) side, 2 acyl side, 3 side chain; on linkers, the order of the positions; unused ones are H or OH. Square brackets hold non-standard residues; d marks the D form. Side chains are listed from the residue outwards. Peptide text beside a SMILES is read from it. * marks the point of attachment. C20 diacid = O=C(O)CCCCCCCCCCCCCCCCCCC(=O)*; γGlu = O=C(O)[C@H](CCC(=O)[*:2])N[*:1]; αMeL = CC(C)C[C@](C)(N)C(=O)O; Orn = NCCC[C@H](N)C(=O)O; AEEA = NCCOCCOCC(=O)O; Aib = CC(C)(N)C(=O)O

Assays:
[1] = biological target: T1, human Gcg receptor (Homo sapiens, UniProt P47871); assay: [125I]-Glucagon binding (SPA), human Gcg receptor; details: read-out: hGLcgR Ki, nM (SEM, n)
T1 construct: expressed in transfected cells; crude membranes
T1 sequence (P47871 26-477): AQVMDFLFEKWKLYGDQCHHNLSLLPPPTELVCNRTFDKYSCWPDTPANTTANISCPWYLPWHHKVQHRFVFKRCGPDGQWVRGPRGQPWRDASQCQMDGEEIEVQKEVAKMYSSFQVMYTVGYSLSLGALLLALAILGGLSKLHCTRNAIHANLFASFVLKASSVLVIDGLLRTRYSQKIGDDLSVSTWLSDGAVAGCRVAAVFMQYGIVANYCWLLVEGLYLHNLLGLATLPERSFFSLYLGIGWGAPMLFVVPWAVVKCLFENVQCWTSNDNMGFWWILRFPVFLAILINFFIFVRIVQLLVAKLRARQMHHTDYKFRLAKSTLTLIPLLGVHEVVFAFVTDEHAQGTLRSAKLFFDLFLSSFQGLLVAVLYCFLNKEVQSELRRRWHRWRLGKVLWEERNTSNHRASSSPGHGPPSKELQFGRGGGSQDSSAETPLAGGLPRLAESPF
Method in brief: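 Cell pellets were lysed in hypotonic Tris buffer, pH 7.5, homogenized, and spun at low then high speed to give crude membranes. Ki was derived from the fitted IC50.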

[2] = biological target: T2, human GIP receptor (Homo sapiens, UniProt P48546); assay: [125I]-GIP binding (SPA), human GIP receptor; details: read-out: hGIPR Ki, nM (SEM, n)
T2 construct: expressed in transfected cells; crude membranes
T2 sequence (P48546 22-466): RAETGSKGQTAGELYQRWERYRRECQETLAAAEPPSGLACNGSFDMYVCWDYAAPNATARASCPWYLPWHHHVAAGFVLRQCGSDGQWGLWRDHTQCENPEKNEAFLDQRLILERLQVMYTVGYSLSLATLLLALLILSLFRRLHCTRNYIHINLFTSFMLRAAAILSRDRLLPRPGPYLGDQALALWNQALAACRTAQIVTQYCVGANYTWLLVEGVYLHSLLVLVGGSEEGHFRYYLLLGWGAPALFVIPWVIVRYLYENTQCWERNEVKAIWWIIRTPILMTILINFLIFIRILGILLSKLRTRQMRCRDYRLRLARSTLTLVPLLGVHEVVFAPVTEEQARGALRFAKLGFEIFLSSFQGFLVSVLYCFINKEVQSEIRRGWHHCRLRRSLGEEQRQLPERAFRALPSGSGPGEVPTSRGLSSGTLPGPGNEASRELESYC

[3] = biological target: human GLP-1 receptor (GLP-1R) (Homo sapiens, UniProt P43220); assay: cAMP pharmacological functional assay in presence of casein, hGLP-1R; assay type: cell-based; details: HEK293 cells expressing hGLP-1R, 0.1% Casein, geometric mean; read-out: hGLP1R cAMP Rel EC50 nM (SEM, n)
Chain of human GLP-1 receptor (GLP-1R) (P43220 24-463): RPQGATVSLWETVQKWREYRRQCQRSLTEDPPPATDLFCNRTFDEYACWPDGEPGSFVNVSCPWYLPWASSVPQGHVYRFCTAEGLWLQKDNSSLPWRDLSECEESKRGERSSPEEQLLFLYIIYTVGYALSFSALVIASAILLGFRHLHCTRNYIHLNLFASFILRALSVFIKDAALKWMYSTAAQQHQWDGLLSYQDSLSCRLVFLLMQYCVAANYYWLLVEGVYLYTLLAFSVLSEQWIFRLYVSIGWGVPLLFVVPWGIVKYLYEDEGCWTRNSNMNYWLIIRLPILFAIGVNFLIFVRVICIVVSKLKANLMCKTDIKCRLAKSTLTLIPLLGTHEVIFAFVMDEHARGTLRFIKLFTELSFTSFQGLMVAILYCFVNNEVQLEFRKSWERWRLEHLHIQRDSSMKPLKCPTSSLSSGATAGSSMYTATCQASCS

[4] = biological target: T3, gastric inhibitory peptide receptor (GIPR) (Homo sapiens, UniProt P48546); assay: cAMP pharmacological functional assay in presence of casein, hGIPR; assay type: cell-based; details: HEK293 cells expressing hGIPR, 0.1% Casein, geometric mean; read-out: hGIPR cAMP Rel EC50 nM (SEM, n)
T3 sequence (P48546 22-466): T2 sequence (P48546 22-466)

[5] = biological target: T4, human GLP-1R (Homo sapiens, UniProt P43220); assay: [125I]-GLP-1 binding (SPA), human GLP-1 receptor; set-up: expressed in transfected cells; crude membranes; details: read-out: hGLP1R Ki, (nM) (SEM, n)
T4 sequence (P43220 24-463): as above
Method in brief: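 Frozen cell pellets are lysed on ice in hypotonic Tris buffer, pH 7.5, homogenized, and centrifuged to a membrane pellet resuspended at about 1 to 3 mg/mL. Binding is then measured in HEPES-based buffer at pH 7.4, and curves are fitted to give IC50 and Ki.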

[6] = biological target: T4, human GLP-1R; assay: GLP-1R CHO cell β-arrestin recruitment assay; assay type: cell-based; set-up: host or cells: CHO-K1 PathHunter cells, assay-ready frozen; details: for EC50: CHO-K1 cells; for hGLP1R B-Arrestin2 % Top: normalized to GLP-1 maximum control
From the text: Activated G-protein coupled receptors can interact with the β-arrestin family of signalling proteins. […] CHO-K1 cells expressing Pro-Link-tagged Human GLP-1R and enzyme-acceptor-tagged β-arrestin-2 may be obtained from DiscoveRx and prepared as assay-ready frozen cells. Test peptides are solubilized in DMSO and serial dilutions are perfomed using the Echo acoustic dispenser (LabCyte). Assay media is the PathHunter Cell Assay Buffer (DiscoveRx) containing 0.1% w/v hydrolyzed Casein (Sigma). […] Plates are incubated for 90 minutes in a 37′C/5% C02 incubator and 10 ul of PathHunter detection reagent is added (DiscoveRx) and plates are incubated at room temperature for 60 minutes. Luminescence signal is measured. Peptide concentration-response curves fit to a four-parameter logistic model to calculate potency as an EC50.

[7] = PathHunter β-arrestin-2 recruitment, 0.1% casein, read-out: hGLP1R B-Arrestin2 Rel EC50 uM (SEM, n)

SMILES | Ki [1] [nM] | Ki [2] [nM] | EC50 [3] [nM] | EC50 [4] [nM] | Ki [5] [nM] | EC50 [6, 7] [µM] | hGLP1R B-Arrestin2 % Top [6] [%] | EC50 ([6]; 0.1% w/v hydrolyzed Casein, read-out: hGLP1R B-Arrestin2 Rel EC50) [µM]
CC[C@H](C)[C@H](NC(=O)[C@H](CC(C)C)NC(=O)[C@H](Cc1ccc(O)cc1)NC(=O)[C@H](CCC(=O)O)NC(=O)[C@@H](NC(=O)[C@H](Cc1ccccc1)NC(=O)[C@H](CCC(=O)O)NC(=O)C(C)(C)NC(=O)[C@H](CCC(N)=O)NC(=O)[C@H](C)NC(=O)[C@H](CCCCNC(=O)COCCOCCNC(=O)COCCOCCNC(=O)CC[C@H](NC(=O)CCCCCCCCCCCCCCCCCCC(=O)O)C(=O)O)NC(=O)[C@H](CCCCN)NC(=O)[C@H](CC(=O)O)NC(=O)[C@H](CC(C)C)NC(=O)[C@](C)(CC(C)C)NC(=O)[C@@H](NC(=O)[C@H](CO)NC(=O)[C@H](Cc1ccc(O)cc1)NC(=O)[C@H](CC(=O)O)NC(=O)[C@H](CO)NC(=O)[C@@H](NC(=O)[C@H](Cc1ccccc1)NC(=O)[C@@H](NC(=O)CNC(=O)[C@H](CCC(=O)O)NC(=O)C(C)(C)NC(=O)[C@@H](N)Cc1ccccc1)[C@@H](C)O)[C@@H](C)O)[C@@H](C)CC)[C@@H](C)CC)C(=O)N[C@@H](C)C(=O)NCC(=O)NCC(=O)N1CCC[C@H]1C(=O)N[C@@H](CO)C(=O)N[C@@H](CO)C(=O)NCC(=O)N[C@@H](C)C(=O)N1CCC[C@H]1C(=O)N1CCC[C@H]1C(=O)N1CCC[C@H]1C(=O)N[C@@H](CO)C(N)=O [Example 338] (H-F[Aib]EGTFTSDYSI[αMeL]LDKK([AEEA-AEEA-γGlu-C20 diacid])AQ[Aib]EFIEYLIAGGPSSGAPPPS-NH2) | > 1060 | 0.0831 | 0.174 | 0.0472 | 3.23 | 0.0189 | 47 | –
CC[C@H](C)[C@H](NC(=O)[C@H](CC(C)C)NC(=O)[C@H](Cc1ccc(O)cc1)NC(=O)[C@@H](CCC(=O)O)NC(=O)[C@@H](NC(=O)[C@H](Cc1ccccc1)NC(=O)[C@H](C)NC(=O)C(C)(C)NC(=O)[C@H](CCC(N)=O)NC(=O)[C@H](C)NC(=O)[C@H](CCCCNC(=O)COCCOCCNC(=O)COCCOCCNC(=O)CC[C@H](NC(=O)CCCCCCCCCCCCCCCCCCC(=O)O)C(=O)O)NC(=O)[C@H](CCCCN)NC(=O)[C@H](CC(=O)O)NC(=O)[C@H](CC(C)C)NC(=O)[C@](C)(CC(C)C)NC(=O)[C@@H](NC(=O)[C@H](CO)NC(=O)[C@H](Cc1ccc(O)cc1)NC(=O)[C@H](CC(=O)O)NC(=O)[C@H](CO)NC(=O)[C@@H](NC(=O)[C@H](Cc1ccccc1)NC(=O)[C@@H](NC(=O)CNC(=O)[C@H](CCC(=O)O)NC(=O)C(C)(C)NC(=O)[C@H](N)Cc1ccc(O)cc1)[C@@H](C)O)[C@@H](C)O)[C@@H](C)CC)[C@@H](C)CC)C(=O)N[C@@H](CCC(=O)O)C(=O)NCC(=O)NCC(=O)N1CCC[C@H]1C(=O)N[C@@H](CO)C(=O)N[C@@H](CO)C(=O)NCC(=O)N[C@@H](C)C(=O)N1CCC[C@H]1C(=O)N1CCC[C@H]1C(=O)N1CCC[C@H]1C(=O)N[C@@H](CO)C(N)=O [Example 356] | > 1010 | 0.35 | 0.506 | 0.386 | 10.3 | > 10.5 | – | > 10.5
CC[C@H](C)[C@H](NC(=O)[C@H](CC(C)C)NC(=O)[C@H](Cc1ccc(O)cc1)NC(=O)[C@@H](CCC(=O)O)NC(=O)[C@@H](NC(=O)[C@H](Cc1ccccc1)NC(=O)[C@H](C)NC(=O)C(C)(C)NC(=O)[C@H](CCC(N)=O)NC(=O)[C@H](C)NC(=O)[C@H](CCCCNC(=O)COCCOCCNC(=O)COCCOCCNC(=O)CC[C@H](NC(=O)CCCCCCCCCCCCCCCCCCC(=O)O)C(=O)O)NC(=O)[C@H](CCCN)NC(=O)[C@H](CC(=O)O)NC(=O)[C@H](CC(C)C)NC(=O)[C@](C)(CC(C)C)NC(=O)[C@@H](NC(=O)[C@H](CO)NC(=O)[C@H](Cc1ccc(O)cc1)NC(=O)[C@H](CC(=O)O)NC(=O)[C@H](CO)NC(=O)[C@@H](NC(=O)[C@H](Cc1ccccc1)NC(=O)[C@@H](NC(=O)CNC(=O)[C@H](CCC(=O)O)NC(=O)C(C)(C)NC(=O)[C@H](N)Cc1ccc(O)cc1)[C@@H](C)O)[C@@H](C)O)[C@@H](C)CC)[C@@H](C)CC)C(=O)N[C@@H](CCC(=O)O)C(=O)NCC(=O)NCC(=O)N1CCC[C@H]1C(=O)N[C@@H](CO)C(=O)N[C@@H](CO)C(=O)NCC(=O)N[C@@H](C)C(=O)N1CCC[C@H]1C(=O)N1CCC[C@H]1C(=O)N1CCC[C@H]1C(=O)N[C@@H](CO)C(N)=O [Example 357] | > 977 | 0.316 | 0.181 | 0.384 | 7.02 | 0.118 | 18.2 | –
CC[C@H](C)[C@H](NC(=O)[C@H](CC(C)C)NC(=O)[C@H](Cc1ccc(O)cc1)NC(=O)[C@H](CCC(=O)O)NC(=O)[C@@H](NC(=O)[C@H](Cc1ccccc1)NC(=O)[C@H](C)NC(=O)C(C)(C)NC(=O)[C@H](CCC(N)=O)NC(=O)[C@H](C)NC(=O)[C@H](CCCCNC(=O)COCCOCCNC(=O)COCCOCCNC(=O)CC[C@H](NC(=O)CCCCCCCCCCCCCCCCCCC(=O)O)C(=O)O)NC(=O)[C@H](CCCN)NC(=O)[C@H](CC(=O)O)NC(=O)[C@H](CC(C)C)NC(=O)[C@](C)(CC(C)C)NC(=O)[C@@H](NC(=O)[C@H](CO)NC(=O)[C@H](Cc1ccc(O)cc1)NC(=O)[C@H](CC(=O)O)NC(=O)[C@H](CO)NC(=O)[C@@H](NC(=O)[C@H](Cc1ccccc1)NC(=O)[C@@H](NC(=O)CNC(=O)[C@H](CCC(=O)O)NC(=O)C(C)(C)NC(=O)[C@H](N)Cc1ccc(O)cc1)[C@@H](C)O)[C@@H](C)O)[C@@H](C)CC)C(C)C)C(=O)N[C@@H](CCC(=O)O)C(=O)NCC(=O)NCC(=O)N1CCC[C@H]1C(=O)N[C@@H](CO)C(=O)N[C@@H](CO)C(=O)NCC(=O)N[C@@H](C)C(=O)N1CCC[C@H]1C(=O)N1CCC[C@H]1C(=O)N1CCC[C@H]1C(=O)N[C@@H](CO)C(N)=O [Example 360] (H-[dY][Aib]EGTFTSDYSI[αMeL]LD[Orn]K([AEEA-AEEA-γGlu-C20 diacid])AQ[Aib]AFVEYLIEGGPSSGAPPPS-NH2) | 485 | 0.128 | 0.145 | 0.197 | 1.74 | 0.0395 | 25.8 | –
CC[C@H](C)[C@H](NC(=O)[C@H](CC(C)C)NC(=O)[C@H](Cc1ccc(O)cc1)NC(=O)[C@@H](CCC(=O)O)NC(=O)[C@@H](NC(=O)[C@H](Cc1ccccc1)NC(=O)[C@H](C)NC(=O)C(C)(C)NC(=O)[C@H](CCC(N)=O)NC(=O)[C@H](C)NC(=O)[C@H](CCCCNC(=O)COCCOCCNC(=O)COCCOCCNC(=O)CC[C@H](NC(=O)CCCCCCCCCCCCCCCCCCC(=O)O)C(=O)O)NC(=O)[C@H](CCCCN)NC(=O)[C@H](CC(=O)O)NC(=O)[C@H](CC(C)C)NC(=O)[C@](C)(CC(C)C)NC(=O)[C@@H](NC(=O)[C@H](CO)NC(=O)[C@H](Cc1ccc(O)cc1)NC(=O)[C@H](CC(=O)O)NC(=O)[C@H](CO)NC(=O)[C@@H](NC(=O)[C@H](Cc1ccccc1)NC(=O)[C@@H](NC(=O)CNC(=O)[C@H](CCC(=O)O)NC(=O)C(C)(C)NC(=O)[C@H](N)Cc1ccc(O)cc1)[C@@H](C)O)[C@@H](C)O)[C@@H](C)CC)C(C)C)C(=O)N[C@@H](C)C(=O)NCC(=O)NCC(=O)N1CCC[C@H]1C(=O)N[C@@H](CO)C(=O)N[C@@H](CO)C(=O)NCC(=O)N[C@@H](C)C(=O)N1CCC[C@H]1C(=O)N1CCC[C@H]1C(=O)N1CCC[C@H]1C(=O)N[C@@H](CO)C(N)=O [Example 361] (H-[dY][Aib]EGTFTSDYSI[αMeL]LDKK([AEEA-AEEA-γGlu-C20 diacid])AQ[Aib]AFV[dE]YLIAGGPSSGAPPPS-NH2) | – | – | 0.955 | 0.401 | – | 0.269 | 20.2 | –
